In US8901337B2, “Metal complexes having dual histone deacetylase inhibitory and DNA-binding activity” (Royal College of Surgeons in Ireland, priority 2009, dated 2014):

Legend:
A2780 cisR cells = assay: Inhibition of DNA synthesis, BrdU incorporation assay, A2780 cisR; format: cell-based, human; conditions: 72 hr, FIG. 19
Method: DNA synthesis was determined using 5-bromo-2-deoxyuridine (BrdU) colourimetric incorporation assay.^18 A2780 P and A2780 cisR cells were seeded into 96 well plates and allowed to adhere overnight. All test agents were added and incubated for 72 hr prior to the addition of BrdU (10 μM per well). Plates were then incubated at 37° C. for 4 h and incorporation was quantified by ELISA (Calbiochem).

[1] = tested on: caspase-3 activation in A2780 cisR cells; assay: Caspase-3 colourimetric assay, A2780 cisR; format: cell-based, human; conditions: 72 hr, IC50 and IC75, FIG. 21
Method: Both floating and attached cells were collected by centrifugation. Cells, at a density of 1.5×10^6 cells/ml were washed with PBS and then re-suspended in chilled cell lysis buffer (supplied in the Caspase-3 colourimetric assay kit, Calbiochem, UK). Cells were incubated on ice for 10 min and then centrifuged for 1 min at 10,000 g. The cytosolic fraction (supernatant) was collected into a fresh tube and 50 μl (2 mg/ml) of each protein sample was transferred to a 96 well plate and diluted with lysis buffer. A 50 μl aliquot of X2 reaction buffer, containing 10 mM DTT was added, followed by 5 μl of 4 mM DEVD-pNA substrate to give a final concentration of 200 μM. The plate was then incubated at 37° C. for 1-2 h. OD was determined at 400 nm using an Anthos HT-II microtitreplate reader. The fold increase in caspase-3 and -9 activities was determined by comparing results to that obtained with un-induced control.

[2] = tested on: DNA in CH1 cells (lymphoma); assay: Pt binding to DNA in cultured cells (ICP-MS), CH1; format: cell-based; conditions: 43 μM of Pt complexes, 2 hours of cell treatment
Method: Pt DNA binding of Pt complexes was measured in SW480 cells (colon cancer) and CH1 cells (lymphoma) or alternatively A2780 P and A2780 cisR cells (sensitive and resistant to cisplatin respectively). The cells were seeded in 60 mm tissue culture dishes with 10 ml of their respective medium. After overnight incubation the medium was removed and replaced with 10 ml of the respective medium containing a platinum complex giving a final concentration of 43 or 40 μM depending on the experiment. The cells were incubated with a given Pt complex for either 2 or 4 h depending on the experiment. The cells were trypsinised and centrifuged. The supernantant was removed and the cells washed twice with 1×PBS and centrifuged. The pellet was re-suspended in DNA buffer to which Proteinase K (20 mg/mL) and 10% SDS were added. After a gentle shake and incubation at 45° C. for two hours, RNAse (100 mg/mL) was added and the cells were incubated at 37° C. overnight. The volume of supernatant was noted and an equal volume of phenol was added.
The resulting mixture was shook for 10 min, then centrifuged for 10 min at 10° C. The supernatant was transferred into a new centrifuge tube (15 ml) and the volume was noted. […] The absorbance of the DNA by was measured by UV spectrophotometry at 260 nm and 280 nm and the concentration of DNA calculated. Platinum bound to DNA was determined by ICP-MS.

## [NH2][Pt]1([NH2])[O]C(=O)C(Cc2ccc(NS(=O)(=O)c3ccc(/C=C/C(=O)NO)cc3)cc2)C(=O)[O]1 [cis-[Pt(NH3)2(malBel−2H)], cis-[Pt(NH3)2(malBel−2H)].1.5H2O]
A2780 cisR cells
  effect on DNA synthesis, BrdU incorporation: dose-dependant decrease in DNA synthesis
[1]
  caspase-3 activity: an increase in both Caspase-3 and -9 activities

## N.N.[Cl][Pt][Cl] [cisplatin, cis-[Pt^II(NH3)2Cl2], reference compound]
[2]
  DNA-bound Pt in CH1: 10.5 · 10^−15 moles of Pt/μg of DNA
